Results reported in US7176219B2, “Salts of quinuclidine derivative” (priority 2005, dated 2007).

Legend:
muscarinic M3 receptors [1] = molecular target: muscarinic M3 receptors (Homo sapiens, UniProt P20309); details: made public in Patent document 1 (EP 0 801 067); cited from earlier work
[2] = Evaluation of hygroscopicity (dynamic steam adsorption, weight change); assay type: physicochemical; details: for Weight Change (%): within the range 5–95% relative humidity; for Deliquescence during water absorption measurement: 5–95% relative humidity
Procedure: A sample (about 5 mg) was placed in a purpose-made quartz holder, and the sample weight at the respective humidity was continuously measured and recorded in the following conditions. The apparatus including data processing was operated according to the method and procedure directed in each device. (Apparatus: dynamic steam adsorption measuring apparatus DVS Advantage, made by SMS)

[3] = Evaluation of stability (1): forced degradation test, impurities by LC; details: for Change from Impurity Amt. before Storage (%), Condition 3 / Change from Impurity Amt. before Storage (%), Condition 2: 25° C., 5 days; for Change from Impurity Amt. before Storage (%), Condition 3: NUV (near ultraviolet ray) irradiated; for Change from Impurity Amt. before Storage (%), Condition 3 / Change from Impurity Amt. before Storage (%), Condition 1: tightly closed; for Change from Impurity Amt. before Storage (%), Condition 2: relative humidity 93%, open; for Change from Impurity Amt. before Storage (%), Condition 1: 120° C., 24 hours
Procedure: A sample after storage was dissolved in 1 mL of MeOH and used as a sample solution. The sample solution was diluted 100 times with MeOH and used as a standard solution. Impurities contained in the sample solution was quantitatively analyzed using the standard solution. In this determination, the apparatus including data processing was operated according to the method and procedure directed in each device. (Apparatus: LC-MSD 1100 series, made by Agilent)

[4] = Evaluation of stability (2): stress testing, impurities by LC, UV at 210 nm; assay type: physicochemical
Procedure: A sample (about 5 mg) was weighed in a glass mess-flask of 10 mL and applied to a stress testing in the following storage conditions. • Condition 1: 5° C.—shading—tightly closed • Condition 2: 40° C.—relative humidity 75%—open • Condition 3: 60° C.—shading—tightly closed • Condition 4: 80° C.—shading—tightly closed • Condition 5: 25° C.—D65 (1000 lux)—tightly closed
Chemical stability: After storage, MeOH was placed in the mess-flask containing the sample up to the level of the marked line, and the resulting solution was used as a sample solution. The sample solution was diluted 100 times with MeOH to prepare a standard solution, which was used in determination of impurities contained in the sample solution. Detection of the impurities was performed by means of UV at 210 nm. […] (Apparatus: LC-MSD 1100 series, made by Agilent)

[5] = system: carbachol-evoked bladder contraction; assay: Inhibitory effects on carbachol-evoked bladder contraction in anesthetized mice; assay type: in vivo; details: anesthetized female mice, i.v., carbachol 10 μg/kg, intravesical pressure
Procedure: The method for determination of inhibitory effects of test compounds on bladder contraction is described as follows.
Female mice, weighing 30 to 35 g, were anesthetized with a sub-lethal dose (75 mg/kg, i.v.) of sodium pentobarbital and placed supine on a heating pad to maintain the body temperature. A polyethylene catheter (PE10) was cannulated to the bladder via the urethra and secured by purse-string suture at the external urethral opening. Another catheter was inserted into the femoral vein for injections of drug solutions at a […]. The bladder catheter was connected to a pressure transducer through a three-way stopcock valve. The bladder was emptied by drainage of urine through the catheter, and then distended with about 100 μL of physiological saline, and the intravesical pressure was measured.
After intravesical pressure stabilization, the muscarinic agonist carbachol (10 μg/kg) was administered repeatedly with an interval of 15 minutes or longer. By this means, bladder contractions occurred in a reproducible manner over 2 hours without deterioration of physical conditions. After three responses to carbachol were obtained, a test compound injection was followed by carbachol administration 10 minutes later and this procedure was repeated with increasing doses of the test compound. In four or five mice per test compound, the percent inhibition of means of prior drug responses was obtained and the dose of test compound required for 50% inhibition (ID50) was estimated by the linear regression analysis. Mice showing rhythmic bladder constriction were not used for the data analysis.

muscarinic M3 receptors [6] = molecular target: T1, muscarinic M3 receptors (Cavia porcellus, UniProt H0W1Z3); assay: Functional affinity estimate for muscarinic M3 receptors in bladders (carbachol-induced intracellular Ca2+ change in bladder smooth muscle cells); assay type: cell-based, guinea pig
T1 construct: Smooth muscle cells were isolated from guinea pig bladders; from tissue; host or cells: smooth muscle cells freshly isolated from guinea pig bladder
Procedure: Below, the method is described in brief.
Smooth muscle cells were isolated from guinea pig bladders from which the […] had been removed, loaded with a calcium-sensitive fluorescent dye Fura2 and suspended in phenol red-free Hanks' buffer solution supplemented with 20 mM HEPES (pH 7.4) and 0.1% bovine serum albumin. An aliquot of cell suspension (490 μL) was continuously stirred, kept at 28° C. and monitored for the ratio of fluorescence (500 nm) at 340 nm excitation to that at 380 nm excitation. To each aliquot, 5 μL of test compound and carbachol solutions were serially added with a 2 minute interval, and the peak increase in the ratio over the level just before stimulation was used in data analysis.

[7] = Hygroscopicity and long-term storage of the known hydrochloride (disclosure section); assay type: physicochemical
[8] = Condition 1: 5° C., shading, tightly closed, 1 month
[9] = Condition 1: 5° C., shading, tightly closed, 2 months
[10] = Condition 1: 5° C., shading, tightly closed, 2 weeks
[11] = Condition 2: 40° C., relative humidity 75%, open, 1 month
[12] = Condition 2: 40° C., relative humidity 75%, open, 2 months
[13] = Condition 2: 40° C., relative humidity 75%, open, 2 weeks
[14] = Condition 3: 60° C., shading, tightly closed, 1 month
[15] = Condition 3: 60° C., shading, tightly closed, 2 months
[16] = Condition 3: 60° C., shading, tightly closed, 2 weeks
[17] = Condition 4: 80° C., shading, tightly closed, 1 month
[18] = Condition 4: 80° C., shading, tightly closed, 2 months
[19] = Condition 4: 80° C., shading, tightly closed, 2 weeks
[20] = Condition 5: 25° C., D65 (1000 lux), tightly closed, 1 month
[21] = Condition 5: 25° C., D65 (1000 lux), tightly closed, 2 months
[22] = Condition 5: 25° C., D65 (1000 lux), tightly closed, 2 weeks
[23] = 25° C., listed as Compound A hydrochloride, hydrochloride

T1 sequence (H0W1Z3 1-590): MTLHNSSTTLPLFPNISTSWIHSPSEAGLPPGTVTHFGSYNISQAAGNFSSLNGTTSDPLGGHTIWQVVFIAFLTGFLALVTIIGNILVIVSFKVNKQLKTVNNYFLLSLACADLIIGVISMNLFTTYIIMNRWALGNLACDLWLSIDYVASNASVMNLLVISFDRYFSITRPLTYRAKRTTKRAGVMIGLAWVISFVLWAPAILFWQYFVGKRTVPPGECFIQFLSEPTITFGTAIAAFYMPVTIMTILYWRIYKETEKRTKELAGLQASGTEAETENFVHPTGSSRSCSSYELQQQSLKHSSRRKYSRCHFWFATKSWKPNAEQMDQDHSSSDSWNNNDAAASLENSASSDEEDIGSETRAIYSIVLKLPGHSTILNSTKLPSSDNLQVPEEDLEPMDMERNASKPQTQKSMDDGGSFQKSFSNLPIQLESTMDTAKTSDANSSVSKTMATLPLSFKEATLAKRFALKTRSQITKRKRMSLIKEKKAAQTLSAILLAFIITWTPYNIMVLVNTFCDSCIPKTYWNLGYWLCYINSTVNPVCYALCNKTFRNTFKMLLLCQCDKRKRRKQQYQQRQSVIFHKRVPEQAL
Chain of muscarinic M3 receptors (Homo sapiens, UniProt P20309) (P20309 whole entry): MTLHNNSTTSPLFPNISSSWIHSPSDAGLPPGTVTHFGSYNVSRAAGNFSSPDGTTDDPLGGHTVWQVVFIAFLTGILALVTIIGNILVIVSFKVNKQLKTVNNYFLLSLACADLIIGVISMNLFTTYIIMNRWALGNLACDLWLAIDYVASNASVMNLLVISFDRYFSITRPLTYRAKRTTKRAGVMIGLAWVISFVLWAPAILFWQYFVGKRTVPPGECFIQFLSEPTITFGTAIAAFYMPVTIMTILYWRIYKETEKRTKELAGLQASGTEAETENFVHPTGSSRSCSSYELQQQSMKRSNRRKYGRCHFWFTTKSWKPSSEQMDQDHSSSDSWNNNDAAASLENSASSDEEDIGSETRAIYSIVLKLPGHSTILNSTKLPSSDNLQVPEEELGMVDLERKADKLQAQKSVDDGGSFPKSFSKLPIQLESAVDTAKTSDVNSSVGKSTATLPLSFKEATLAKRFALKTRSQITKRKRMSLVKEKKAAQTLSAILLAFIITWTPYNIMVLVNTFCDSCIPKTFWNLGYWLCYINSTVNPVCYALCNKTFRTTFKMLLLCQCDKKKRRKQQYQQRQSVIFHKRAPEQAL

O=C(O[C@H]1CN2CCC1CC2)N1CCc2ccccc2[C@H]1c1ccccc1 [Compound A, (−)-(3R)-quinuclidin-3-yl(1R)-1-phenyl-1,2,3,4-tetrahydroisoquinoline-2-carboxylate]
Affinity and selectivity for muscarinic M3 receptors (muscarinic M3 receptors [1]): displays an affinity and selectivity for muscarinic M3 receptors

O=C(O[C@H]1CN2CCC1CC2)N1CCc2ccccc2[C@H]1c1ccccc1 [Example 1, (−)-(3R)-quinuclidin-3-yl(1R)-1-phenyl-1,2,3,4-tetrahydroisoquinoline-2-carboxylate (−)-(2S,3S)-tartrate]
Weight Change (%) ([2]; 25° C.): <1% | Change from Impurity Amt. before Storage (%), Condition 3 [3]: −0.3% | Change from Impurity Amt. before Storage (%), Condition 2 [3]: −0.1% | Change from Impurity Amt. before Storage (%), Condition 1 [3]: 0.2% | Impurities before Storage (%) [3]: 1.5% | Impurities (%) [4, 8]: 0.00% | Impurities (%) [4, 9]: 0.00% | Impurities (%) [4, 10]: 0.00% | Impurities (%) [4, 11]: 0.00% | Impurities (%) [4, 12]: 0.00% | Impurities (%) [4, 13]: 0.00% | Impurities (%) [4, 14]: 0.00% | Impurities (%) [4, 15]: 0.00% | Impurities (%) [4, 16]: 0.00% | Impurities (%) [4, 17]: 0.00% | Impurities (%) [4, 18]: 0.00% | Impurities (%) [4, 19]: 0.00% | Impurities (%) [4, 20]: 0.00% | Impurities (%) [4, 21]: 0.00% | Impurities (%) [4, 22]: 0.00% | ID50 (dose required for 50% inhibition of bladder contraction) [5]: 0.079 mg/kg | IC50 (muscarinic M3 receptors [6]; IC50 (ng/mL), inhibition of carbachol-induced Ca2+ increase, guinea pig bladder smooth muscle cells, Fura2): 6.62 nM | Ki (muscarinic M3 receptors [6]; Ki (nM), IC50 converted by Cheng-Prusoff equation based on EC50 of carbachol): 0.68 ± 0.21 nM

Cl.O=C(O[C@H]1CN2CCC1CC2)N1CCc2ccccc2[C@@H]1c1ccccc1 [Reference Example 2, Compound A hydrochloride, reference compound]
Deliquescence during water absorption measurement ([2]; 25° C., hydrochloride): deliquescent | Deliquescence during water absorption measurement [2, 23]: accompanied by deliquescence | Relative humidity at which rapid moisture uptake began ([2]; 25° C., FIG. 1): about 65 % relative humidity | Weight Change (%) ([2]; 25° C., hydrochloride): > 35% | Weight Change (%) [2, 23]: exceeded 35% | Weight gain by absorption of moisture ([2]; at 75% or more relative humidity): ≥ 15% | Change from Impurity Amt. before Storage (%), Condition 3 [3]: 2.0% | Change from Impurity Amt. before Storage (%), Condition 2 [3]: 3.8% | Change from Impurity Amt. before Storage (%), Condition 1 [3]: 0.2% | Stability to humidity ([3]; Condition 2 in Test Example 2 and Condition 2 in Test Example 3): not so stable to humidity | Stability to light ([3]; Condition 3 in Test Example 2 and Condition 5 in Test Example 3): not so stable | Increase of impurities during storage ([3]; Table 2 and Table 3): impurities increased during storage | Impurities before Storage (%) [3]: 0.1% | Impurities during long-term storage ([7]; long-term storage): increase of impurities during long-term storage | Hygroscopicity in a conventional environment ([7]; relative humidity of 70% (room temperature)): so hygroscopic as to deliquesce | Impurities (%) [4, 8]: 0.21% | Impurities (%) [4, 9]: 0.18% | Impurities (%) [4, 10]: 0.25% | Impurities (%) [4, 11]: 8.19% | Impurities (%) [4, 12]: 9.20% | Impurities (%) [4, 13]: 8.72% | Impurities (%) [4, 14]: 0.22% | Impurities (%) [4, 15]: 0.24% | Impurities (%) [4, 16]: 0.34% | Impurities (%) [4, 17]: 0.39% | Impurities (%) [4, 18]: 0.47% | Impurities (%) [4, 19]: 0.43% | Impurities (%) [4, 20]: 2.38% | Impurities (%) [4, 21]: 3.68% | Impurities (%) [4, 22]: 1.73%
